Experimental data as given in ChEMBL document CHEMBL1128857.

Target: T1, Xaa-Pro dipeptidase (Homo sapiens) (UniProt P12955)
T1 sequence (whole entry): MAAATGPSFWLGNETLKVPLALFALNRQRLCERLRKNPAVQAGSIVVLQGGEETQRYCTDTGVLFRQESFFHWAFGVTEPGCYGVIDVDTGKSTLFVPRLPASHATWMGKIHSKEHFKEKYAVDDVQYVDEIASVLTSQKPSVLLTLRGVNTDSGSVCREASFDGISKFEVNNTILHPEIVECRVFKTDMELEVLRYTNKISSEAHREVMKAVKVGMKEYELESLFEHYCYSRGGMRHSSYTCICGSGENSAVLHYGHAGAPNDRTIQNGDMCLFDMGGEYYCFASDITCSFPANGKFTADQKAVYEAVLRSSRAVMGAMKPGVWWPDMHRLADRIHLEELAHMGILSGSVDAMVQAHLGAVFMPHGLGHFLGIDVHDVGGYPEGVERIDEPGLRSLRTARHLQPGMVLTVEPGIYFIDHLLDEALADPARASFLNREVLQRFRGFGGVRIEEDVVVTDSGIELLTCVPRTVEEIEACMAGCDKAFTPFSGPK
Description: Inhibitory constant for inhibition of prolidase in the second phase of biphasic inhibition

C=C(OP(=O)(O)O)C(=O)O
Ki': 240 µM
